From ChEMBL document CHEMBL1641367, “Antioxidant, anti-inflammatory and anti-hyperglycaemic activities of heterocyclic homoprostanoid derivatives” (2011)
Calls of active or inactive are those of the source. The calls are words filed in the database; no cut-off is given here.

Assays:
Rattus norvegicus [1] = experiment: Antiinflammatory activity in rat assessed as inhibition of carrageenan-induced hind paw edema at 100 mg/kg, po measured after 3 hrs of carrageenan challenge; type: functional
Serum [2] = experiment: Antiinflammatory activity in bovine serum assessed as denaturation of albumin at 1 mM after 10 mins by spectrophotometry; type: functional; settings: Bos taurus
Serum [3] = experiment: Antiinflammatory activity in bovine serum assessed as denaturation of albumin at 0.25 mM after 10 mins by spectrophotometry; type: functional; settings: Bos taurus
[4] = target: Dipeptidyl peptidase 4 (Homo sapiens) (UniProt P27487); experiment: Inhibition of DPP4 at 500 ug/ml after 30 mins by spectrophotometry
Serum [5] = experiment: Antiinflammatory activity in bovine serum assessed as denaturation of albumin at 5 mM after 10 mins by spectrophotometry; type: functional; settings: Bos taurus
Serum [6] = experiment: Antiinflammatory activity in bovine serum assessed as denaturation of albumin at 0.01 mM after 10 mins by spectrophotometry; type: functional; settings: Bos taurus
Mus musculus [7] = experiment: Antihyperglycemic activity in mouse assessed as decrease in blood glucose AUC level at 100 mg/kg, po administered before glucose challenge measured after 120 mins post glucose infusion; type: functional, organism-based; set-up: dose 100 mg/kg
Rattus norvegicus [8] = experiment: Antiinflammatory activity in rat assessed as inhibition of complete Freund's adjuvant-induced paw swelling at 100 mg/kg, po administered on day 21 post induction of inflammation measured on day 35; type: functional
Mus musculus [9] = experiment: Antihyperglycemic activity in mouse assessed as decrease in blood glucose AUC level at 100 mg/kg, ip administered before glucose challenge measured after 120 mins post glucose infusion; type: functional; settings: 2 h, route intraperitoneal
Rattus norvegicus [10] = experiment: Antiinflammatory activity in rat assessed as inhibition of complete Freund's adjuvant-induced paw swelling at 5 mg/kg, po administered on day 21 post induction of inflammation measured on day 35; type: functional

Dipeptidyl peptidase 4 (Homo sapiens), sequence (P27487 whole entry, looked up): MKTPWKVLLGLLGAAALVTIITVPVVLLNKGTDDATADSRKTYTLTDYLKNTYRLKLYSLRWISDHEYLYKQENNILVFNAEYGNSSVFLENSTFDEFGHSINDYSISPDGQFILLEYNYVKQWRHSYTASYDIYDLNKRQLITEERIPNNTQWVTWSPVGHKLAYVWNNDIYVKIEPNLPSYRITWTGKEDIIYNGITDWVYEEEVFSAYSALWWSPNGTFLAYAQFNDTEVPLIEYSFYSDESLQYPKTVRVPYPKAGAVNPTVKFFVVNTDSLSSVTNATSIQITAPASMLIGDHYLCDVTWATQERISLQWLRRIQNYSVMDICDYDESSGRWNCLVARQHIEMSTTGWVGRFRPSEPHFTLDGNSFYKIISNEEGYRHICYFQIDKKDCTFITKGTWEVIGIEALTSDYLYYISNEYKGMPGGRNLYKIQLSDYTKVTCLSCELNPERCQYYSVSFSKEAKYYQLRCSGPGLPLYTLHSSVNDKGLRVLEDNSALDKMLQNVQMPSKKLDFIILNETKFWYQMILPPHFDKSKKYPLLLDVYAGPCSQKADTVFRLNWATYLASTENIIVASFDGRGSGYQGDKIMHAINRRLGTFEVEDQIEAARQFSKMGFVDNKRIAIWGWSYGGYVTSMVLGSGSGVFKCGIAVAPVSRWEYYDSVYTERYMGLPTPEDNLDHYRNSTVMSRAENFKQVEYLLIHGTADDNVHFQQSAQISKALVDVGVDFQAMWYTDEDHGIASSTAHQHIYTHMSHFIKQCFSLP

inhibition [4] | Structure (SMILES) | inhibition in vivo at 100 mg/kg (Rattus norvegicus [1]) | inhibition at 1000 µM (Serum [2]) | other results
 | CCCCCCCCC1=NC(=S)N=C1CCCCCCCC(=O)O | -7.17% | 78.3% | 
58.3% | CCCCCCCCc1nc(=S)[nH]nc1CCCCCCCC(=O)O | -3.82% |  | inhibition at 250 µM (Serum [3]): 14%
 | CCCCCCC(CC1OC(C)(C)OC1CCCCCCCC(=O)OC)OC(C)=O (stereo unspecified) |  |  | inhibition at 5000 µM (Serum [5]): 48.5%
 | CCCCCCCCc1nc2ccccc2nc1CCCCCCCC(=O)NN |  | 3.72% | 
 | CCCCCCCCC1=NC(=O)N=C1CCCCCCCC(=O)NN |  | 31.4% | 
 | CCCCCCCCC1=NC(=S)N=C1CCCCCCCC(=O)NN1C(=O)CSC1c1ccc(Cl)cc1 (stereo unspecified) | -21.7% |  | 
 | CCCCCCCCC1OC(C)(C)OC1CCCCCCCC(=O)OCC (stereo unspecified) |  |  | inhibition at 5000 µM (Serum [5]): 46.4%
88.1% | CCCCCCCCc1nc2ccc(C)cc2nc1CCCCCCCC(=O)O | 12.5% | 37.4% | 
23.3% | CCCCCCCCC1=NC(=S)N=C1CCCCCCCC(=O)OCCO[N+](=O)[O-] | -22.4% |  | inhibition at 10 µM (Serum [6]): 38.1%
45.5% | CCCCCCCCc1nc2ccc(Cl)cc2nc1CCCCCCCC(=O)O | 26.7% | 57.1% | inhibition (Mus musculus [7]): inactive; inhibition in vivo at 100 mg/kg (Rattus norvegicus [8]): 44.2%; inhibition in vivo at 100 mg/kg (Mus musculus [9]): 36.7%
-6.22% | CCCCCCCCC1=NC(=O)N=C1CCCCCCCC(=O)OCCO[N+](=O)[O-] | -22.8% | 25.1% | 
12.3% | CCCCCCCCC1=NC(=O)CC(=O)N=C1CCCCCCCC(=O)O | 1.74% |  | inhibition at 250 µM (Serum [3]): 37%
2.2% | CCCCCCCCc1nonc1CCCCCCCC(=O)O |  |  | inhibition at 5000 µM (Serum [5]): 25.4%
73.6% | CCCCCCCCc1nc2ccccc2nc1CCCCCCCC(=O)O | 34.4% | 75.7% | 
64% | CCCCCCCCc1nc2ccc([N+](=O)[O-])cc2nc1CCCCCCCC(=O)O | 39.6% | 36.9% | inhibition (Mus musculus [7]): inactive; inhibition in vivo at 100 mg/kg (Rattus norvegicus [8]): 53.3%; inhibition in vivo at 100 mg/kg (Mus musculus [9]): 45.1%
 | O=C(O)Cc1ccccc1Nc1c(Cl)cccc1Cl [DICLOFENAC] | 38.2% |  | inhibition in vivo at 5 mg/kg (Rattus norvegicus [10]): 35.3%; inhibition at 5000 µM (Serum [5]): 56.3%
 | CCCCCCCCC1=NC(=O)N=C1CCCCCCCC(=O)O | -12.9% | 76.7% | 
 | CCCCCCCCC1=NC(=S)N=C1CCCCCCCC(=O)NN |  |  | inhibition at 10 µM (Serum [6]): 37.2%
 | CCCCCCCCC1=NC(=O)N=C1CCCCCCCC(=O)NN1C(=O)CSC1c1ccc(Cl)cc1 (stereo unspecified) | 0% |  | 
